USRE39088E1, “Amide compounds and use of the same” (Japan Tobacco, Inc., priority 1995, dated 2006)
Counter-ions that a name gives are not always drawn. Like-named read-outs stand apart in the source and are kept apart here.

Legend:
IL-8 = test: Suppression of production of inflammatory cytokines: IL-8 in LPS-stimulated human peripheral blood monocytes (ELISA); assay type: cell-based; conditions: supernatant 20 hours after LPS
Experimental: (§1) Suppression of production of inflammatory cytokines
(§2) Thirty ml of human peripheral blood added with heparin was placed on Ficol-Paque (15 ml), and centrifuged at 400 G for 40 minutes at room temperature. The obtained monocyte fraction layers were collected and washed three times with E-MEM medium. The cells were adjusted to a final concentration of 0.5×10^5 cells/800 μl with RPMI-1640 medium containing 5% bovine fetal serum (2-mercaptoethanol), and seeded in a 24 well plant by 800 μl. A test sample (100 μl) was added and 100 μl of lipopolysarcharide (LPS, 100 μg/ml) was added one hour later. The supernatant was taken at 20 hours after stimulation with LPS, and amounts of various cytokines were determined using an ELISA kit.

IL-1 = test: Suppression of production of inflammatory cytokines: IL-1 in LPS-stimulated human peripheral blood monocytes (ELISA); assay type: cell-based; conditions: Monocyte, read-out: IC50 (μM) IL-1β
Experimental: as §1, §2

TNF-α = test: Suppression of production of inflammatory cytokines: TNF-α in LPS-stimulated human peripheral blood monocytes (ELISA); assay type: cell-based; conditions: Monocyte, read-out: IC50 (μM) TNF
Experimental: as §1, §2

[1] = test system: TNF α in the peritoneal fluid; test: Suppression of LPS-induced peritonitis; assay type: in vivo, male Balb/c mice; conditions: test sample 50 mg/kg from the tail vein 60 minutes before LPS i.p.; TNF α in peritoneal fluid one hour after LPS, relative to control group; ** = p<0.01 from control
Experimental: Suppression of LPS-induced peritonitis
LPS (30 μg/ml, 1 ml) prepared with physiological saline containing 0.5% CMC (carboxymethylcellulose) was infra-peritoneally injected into male Balb/c mice to induce-peritonitis. One hour later, the mice were killed with carbon dioxide, and the amount of TNF α in the peritoneal fluid was determined using an ELISA kit.
The test sample (50 mg/kg) was administered from the tail vein at 60 minutes before LPS injection, and the degree of suppression was investigated. The suppression by the test sample is shown in the ratio relative to the suppression in the control group.
Suppression (%)=100-(TNR amount of group treated with test sample/TNF amount of control group)×100
The results are shown in Table 89 wherein ** means the presence of significant difference by p<0.01 from the control group.

ALT in blood = test: Suppression of LPS/D-galactosamine-induced hepatitis; assay type: in vivo; conditions: tail vein, 10 minutes before LPS/D-galactosamine, ALT in blood at 6 hours, male C57BL/6 mice; for inhibition in vivo at 5 mg/kg / inhibition in vivo at 10 mg/kg: Mus musculus, iv
Experimental: Suppression of LPS/D-galactosamine-induced hepatitis
LPS (5 μg/kg)D-galactosamine (500 mg/kg) in physiological saline was intraperitoneally injected to male C57BL/6 mice to induce hepatitis. Six hours after the injection of LPS/D-galactosamine in physiological saline, blood was taken from the mice orbital venosus plexus. Plasma was separated from the blood, and ALT in blood was determined by a biochemical analyzer. The test sample was administered from the tail vein at 10 minutes before the injection of LPS/D-galactosamine in physiological saline, and the degree of suppression was investigated. The suppression by the test sample is shown in the ratio relative to the suppression in the control group.
Suppression (%)=100-(ALT amount of group treated with test sample/ALT amount of control group)×100

[2] = LPS-stimulated human peripheral blood monocytes, supernatant 20 hours after LPS, ELISA

| IC50 (IL-8; Homo sapiens, Monocyte, 20 h) | SMILES | inhibition in vivo at 10 mg/kg (ALT in blood) | other results |
| --- | --- | --- | --- |
| 0.01 µM | CCOC(=O)[C@H](Cc1ccccc1)NC(=O)c1cc(Cl)c(OCCN2CCN(C)CC2)c(Cl)c1O [Example 2, N-{3,5-Dichloro-2-hydroxy-4-[2-(4-methylpiperazin-1-yl)ethoxy]-benzoyl}-L-phenylalanine ethyl ester dihydrochloride] | 65% |  |
| > 30 µM | COC(=O)[C@H](Cc1ccccc1)NC(=O)c1ccc(OCCCN)cc1O [Example 3] |  | IC50 (IL-1; [2]): > 30 µM; IC50 (TNF-α; [2]): 14 µM |
| 6 µM | COC(=O)[C@H](Cc1ccccc1)NC(=O)c1ccc(OCCCCCN)cc1O [Example 5] |  | IC50 (IL-1; [2]): 75 µM; IC50 (TNF-α; [2]): 6 µM |
| 14 µM | COC(=O)[C@H](Cc1ccccc1)NC(=O)c1ccc(OCCCCCCN)cc1O [Example 6] |  | IC50 (IL-1; [2]): 14 µM; IC50 (TNF-α; [2]): 6 µM |
| < 0.01 µM | CCOC(=O)C(Cc1ccccc1)NC(=O)c1cc(Cl)c(OCCCCN)c(Cl)c1O.Cl (stereo not drawn) [Example 19] |  | Inhibition (%) [1]: 32** % |
| < 0.01 µM | CC(C)OC(=O)[C@H](Cc1ccccc1)NC(=O)c1cc(Cl)c(OCCCCN)c(Cl)c1O [Example 27] | 67% |  |
| 0.5 µM | COC(=O)[C@H](Cc1ccccc1)NC(=O)c1cc(Cl)c(OCCCCNC(=N)N)c(Cl)c1O [Example 32] | 78% |  |
| 0.3 µM | COC(=O)[C@H](Cc1ccccc1)NC(=O)c1cc(Cl)c(OCCOCCN(C)C)c(Cl)c1O [Example 37] | 80% |  |
| 0.004 µM | NCCCCOc1c(Cl)cc(C(=O)N[C@@H](Cc2ccccc2)C(=O)OC2CCCCC2)c(O)c1Cl [Example 45] | 30% | IC50 (IL-1; [2]): 0.0008 µM; IC50 (TNF-α; [2]): 0.004 µM |
| 28 µM | CNCCCCOc1c(Cl)cc(C(=O)N[C@@H](Cc2ccccc2)C(=O)NCC(=O)O)c(O)c1Cl [Example 50] | 15% |  |
| 0.03 µM | COC(=O)[C@H](Cc1ccccc1)NC(=O)c1cc(Cl)c(OCCN2CCNC(C)C2)c(Cl)c1O (stereo partly drawn) [Example 60] | 42% |  |
| < 0.01 µM | CCOC(=O)C(Cc1ccccc1)NC(=O)c1cc(Cl)c(OCCCCNC)c(Cl)c1OC(C)=O (stereo not drawn) [Example 117] | 54% |  |
| 0.2 µM | NCCCCOc1c(Cl)cc(C(=O)N[C@@H](Cc2ccccc2)C(=O)O)c(O)c1Cl [Example 127] |  | inhibition in vivo at 5 mg/kg (ALT in blood; dose 5 mg/kg): 82% |

Second part, the compound before the results:

| SMILES | IC50 (IL-8; Homo sapiens, Monocyte, 20 h) | inhibition in vivo at 10 mg/kg (ALT in blood) | other results |
| --- | --- | --- | --- |
| CNCCCCOc1c(Cl)cc(C(=O)N[C@@H](Cc2ccccc2)C(=O)OC)c(O)c1Cl.Cl [Example 1, N-[3,5-Dichloro-2-hydroxy-4-(4-methylaminobutoxy)benzoyl]-L-phenylalanine methyl ester hydrochloride] |  | 78% | IC50 (IL-8; Monocyte): 0.009 µM; IC50 (IL-1; Homo sapiens, 20 h): 0.002 µM; IC50 (TNF-α; Homo sapiens, 20 h): 0.008 µM; Inhibition (%) [1]: 64** %; inhibition in vivo at 5 mg/kg (ALT in blood; dose 5 mg/kg): 88% |
| COC(=O)[C@H](Cc1ccccc1)NC(=O)c1ccc(OCCCCN)cc1O.Cl [Example 4] | 2 µM | 42% | IC50 (IL-1; [2]): 3 µM; IC50 (TNF-α; [2]): 2 µM; Inhibition (%) [1]: 38** % |
| CNCCCCOc1cc(O)c(C(=O)N[C@@H](Cc2ccccc2)C(=O)OC)cc1Cl.Cl [Example 9] | < 0.3 µM |  | Inhibition (%) [1]: 21% |
| CNCCCCOc1c(Cl)cc(C(=O)N[C@@H](Cc2ccccc2)C(=O)OC)c(O)c1C [Example 10] | 0.6 µM | 77% |  |
| CCOC(=O)C(Cc1ccccc1)NC(=O)c1cc(Cl)c(OCCCCNC)c(Cl)c1O (stereo not drawn) [Example 22] |  | 51% | IC50 (IL-8): < 0.01 µM |
| CCCCCCOC(=O)[C@H](Cc1ccccc1)NC(=O)c1cc(Cl)c(OCCCCNC)c(Cl)c1O [Example 31] | < 0.01 µM |  | inhibition in vivo at 5 mg/kg (ALT in blood; dose 5 mg/kg): 87% |
| CNCCCCOc1c(Cl)cc(C(=O)N[C@@H](Cc2ccccc2)C(=O)OC2CCCCC2)c(O)c1Cl [Example 46] | < 0.01 µM | 57% |  |
| CCSC(=O)C(Cc1ccccc1)NC(=O)c1cc(Cl)c(OCCCCN)c(Cl)c1O.Cl (stereo not drawn) [Example 52] | < 0.01 µM |  | Inhibition (%) [1]: 31** % |
| CNCCCCOc1c(Cl)cc(C(=O)N[C@@H](Cc2ccccc2)C(=O)OC)c(OC(=O)c2ccccc2)c1Cl [Example 105, N-[2-Benzoyloxy-3,5-dichloro-4-(4-methylaminobutoxy)benzoyl]-L-phenylalanine methyl ester hydrochloride] | 0.005 µM | 40% | IC50 (IL-1; [2]): 0.001 µM; IC50 (TNF-α; [2]): 0.004 µM |
| CNCCCCOc1c(Cl)cc(C(=O)N[C@@H](Cc2ccccc2)C(=O)O)c(O)c1Cl [Example 126, N-[3,5-Dichloro-2-hydroxy-4-(4-methylaminobutoxy)benzoyl]-L-phenylalanine hydrochloride] | 0.8 µM | 27% |  |
| Cl.NCCCCOc1c(Cl)cc(C(=O)N[C@@H](Cc2ccccc2)C(=O)Nc2ccccc2)c(O)c1Cl [Example 138, N-[3,5-Dichloro-2-hydroxy-4-(4-aminobutoxy)benzoyl]-L-phenyl-alanylaminobenzene hydrochloride] |  |  | IC50 (IL-8): 1 µM; Inhibition (%) (ALT in blood; dose 5 mg/kg): 22% |
| CCOC(=O)[C@H](Cc1ccccc1)NC(=O)c1ccc(-c2noc(CCCCNC)n2)cc1O.Cl [Example 148, (2S)-3-Phenyl-2-[4-[5-(4-methylaminobutyl)-1,2,4-oxadizol-3-yl]-2-hydroxybenzoylamino]propionic acid ethyl ester hydrochloride] |  |  | IC50 (IL-8): 4 µM; Inhibition (%) [1]: 19% |
| CCOC(=O)[C@H](Cc1ccccc1)NC(=O)c1cc(Cl)c(OC(=O)CCN2CCNCC2)c(Cl)c1O [Example 155, N-[3,5-Dichloro-2-hydroxy-4-(3-piperazinylpropionyloxy)benzoyl]-L-phenylalanine ethyl ester dihydrochloride] |  |  | IC50 (IL-8; Monocyte): 0.2 µM; Inhibition (%) [1]: 28** % |
